From PMC11678782, “The Antioxidant and Anti-Inflammatory Activities of the Methanolic Extract, Fractions, and Isolated Compounds from Eriosema montanum Baker f. (Fabaceae)” (Molecules, 2024)
Entries after “also recorded” stand apart in the source; their conditions may differ.

Experiments:
[1] = test system: LPS-stimulated RAW 264.7 cells; experiment: ROS production in LPS-stimulated RAW 264.7 cells (DCFH-DA); type: cell-based, murine; conditions: 25, 50, 100 µg/mL, 2 h pre-treatment, 200 ng/mL LPS 24 h
Method: For ROS production inhibition, on a black/clear bottom 96-well plate, RAW 264.7 cells were seeded at a density of 10,000 cells per well. The cells were then pre-treated with non-toxic quantities of EMME and genistin (5) at 25, 50, and 100 µg/mL for two hours and then exposed to 200 ng/mL of LPS for twenty-four hours under standard culture conditions. Thereafter, the cells were washed twice with PBS, followed by the addition of 100 µL of fresh FBS-free medium containing 10 µM of the fluorescent probe 2′,7′-dichlorodihydrofluorescein diacetate (DCFH-DA) (Sigma-Aldrich, Darmstadt, Germany). After 30 min of additional incubation under usual culture conditions, PBS was added to the plate in place of the fluorescent probe. The fluorescence of the cells was measured using a SpectraMax iD3 multi-mode microplate reader (Molecular Devices, San Jose, CA, USA) at 485 nm (excitation) and 535 nm (emission). The percentage of cells treated with DMSO 0.5% without LPS, known as the negative control, was used to express the intracellular ROS levels. Using an excitation/emission filter (480/535 nm) on a 40× objective, images were taken with a camera (Flexacam C1, Leica Microsystems, Wetzlar, Germany) attached to a fluorescence microscope (Leica Microsytems GmbH, Wetzlar, Germany).

[2] = test system: LPS-induced NO production; parameters: method as in PMID 20183278, PMID 27087823, PMID 32253713; conditions: cited from earlier work

SMILES: O=c1c(-c2ccc(O)cc2)coc2cc(O[C@@H]3O[C@H](CO)[C@@H](O)[C@H](O)[C@H]3O)cc(O)c12 [Compound 5, genistin]
- Inhibition of LPS-induced ROS production [1]: markedly and dose-dependently reduced
- Inhibition of LPS-induced ROS production ([1]; listed as Genistin (5)): able to inhibit
- Inhibition of LPS-induced ROS production ([1]; listed as genistin (5)): moderate activity; also recorded: moderately effective
- Effect on LPS-induced NO production [2]: decreases LPS-induced NO production
